Test results reported in patent publication US5834461A, “Tricyclic benzazepine vasopressin antagonists” (American Cyanamid Company, priority 1997, dated 1998).

Key:
[1] = molecular target: T1, rat kidney medullary V2 receptors (Rattus norvegicus, UniProt Q00788); experiment: Binding Assay to Rat Kidney Medullary V2 Receptors; settings: rat kidney medullary V2
T1 construct: Medullary tissues from rat kidneys are dissected out; from tissue; host or cells: rat kidney medulla membranes
Method in brief: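 Competition binding: [3H]AVP at 0.8 nM, test compounds from 50% DMSO, and membranes from rat kidney medulla, left 120 min on the bench. Filtration then liquid scintillation counting measured bound ligand; 1.0 μM unlabeled ligand set non-specific binding.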

[2] = molecular target: vasopressin V1 receptor (rat liver plasma membranes) (Rattus norvegicus, UniProt P30560); experiment: Binding Assay to Rat Hepatic V1 Receptors; settings: rat hepatic V1
[3] = tested on: vasopressin V1; experiment: Vasopressin V1 Antagonist Activity in Conscious Rats (vasopressin vasopressor response); assay type: in vivo, rat (spontaneously hypertensive rats); design: Average Change: unit not given here
Description: Conscious rats are restrained in a supine position with elastic tape. The area at the base of the tail is locally anesthetized by subcutaneous infiltration with 2% procaine (0.2 ml). Using aseptic technique the ventral caudal tail artery is isolated and a cannula made of PE 10 and 20 (heat-fused) tubing is passed into the lower abdominal aorta. The cannula is secured, heparinized (1000 i.u./cc), sealed and the wound closed with one or two stitches of Dexon 4-0. The caudal vein is also cannulated in the same manner for intravenous drug administration. The duration of the surgery is approximately 5 minutes. Additional local anesthesia (2% procaine or lidocaine) is provided as needed.
The animals are placed in plastic restraining cages in an upright position. The cannula is attached to a Statham P23Db pressure transducer and pulsatile blood pressure is recorded. […] The vasopressin injections are repeated 30, 60, 90, 120, 180, 240 and 300 min. later. Percentage of antagonism by the compound is calculated using the pre-drug vasopressin vasopressor response as 100%.

[4] = tested on: vasopressin V2; experiment: Vasopressin V2 Antagonist Activity in Conscious Hydrated Rats (diuretic effect); assay type: in vivo, normal Sprague-Dawley rats; settings: AVP 0.4 μg/kg i.p.
Description: Conscious hydrated rats are treated with compounds under study from 0.1 to 100 mg/kg orally or vehicle. Two to four rats are used for each compound. One hour later, arginine vasopressin (AVP, antidiuretic hormore, ADH) dissolved in peanut oil is administered at 0.4 μg/kg intraperitoneally. Two rats in each test would not receive arginine vasopressin but only the vehicle (peanut oil) to serve as water-loading control. Twenty minutes later each rat is given 30 mL/kg of deionized water orally by gavage and is placed individually in a metabolic cage equipped with a funnel and a graduated glass cylinder to collect urine for four hours. Urine volume is measured and osmolality analyzed by use of a Fiske One-Ten osmometer (Fiske Assoc., Norwood, Mass., USA). Urinary sodium, potassium, and chloride are analyzed by use of ion-specific electrodes in a Beckman E3 (Electrolyte 3) Analyzer. In the following results, […] and decreased osmolality relative to AVP-control indicates activity.

[5] = 30 mg/kg p.o., VAS 0.01 i.u./kg, 30 min
[6] = 30 mg/kg p.o., VAS 0.01 i.u./kg, 60 min
[7] = 30 mg/kg p.o., VAS 0.01 i.u./kg, 90 min
[8] = 30 mg/kg p.o., VAS 0.01 i.u./kg, 120 min
[9] = 30 mg/kg p.o., VAS 0.01 i.u./kg, 180 min
[10] = 30 mg/kg p.o., VAS 0.01 i.u./kg, 240 min
[11] = 30 mg/kg p.o., VAS 0.02 i.u./kg, 30 min
[12] = 30 mg/kg p.o., VAS 0.02 i.u./kg, 60 min
[13] = 30 mg/kg p.o., VAS 0.02 i.u./kg, 90 min
[14] = 30 mg/kg p.o., VAS 0.02 i.u./kg, 120 min
[15] = 30 mg/kg p.o., VAS 0.02 i.u./kg, 180 min
[16] = 30 mg/kg p.o., VAS 0.02 i.u./kg, 240 min
[17] = 10 mg/kg i.v., VAS 0.01 i.u./kg, 30 min
[18] = 10 mg/kg i.v., VAS 0.01 i.u./kg, 60 min
[19] = 10 mg/kg i.v., VAS 0.01 i.u./kg, 90 min
[20] = 10 mg/kg i.v., VAS 0.01 i.u./kg, 120 min
[21] = 10 mg/kg i.v., VAS 0.01 i.u./kg, 180 min
[22] = 10 mg/kg i.v., VAS 0.01 i.u./kg, 240 min
[23] = 10 mg/kg i.v., VAS 0.01 i.u./kg, 300 min
[24] = 10 mg/kg i.v., VAS 0.02 i.u./kg, 30 min
[25] = 10 mg/kg i.v., VAS 0.02 i.u./kg, 60 min
[26] = 10 mg/kg i.v., VAS 0.02 i.u./kg, 90 min
[27] = 10 mg/kg i.v., VAS 0.02 i.u./kg, 120 min
[28] = 10 mg/kg i.v., VAS 0.02 i.u./kg, 180 min
[29] = 10 mg/kg i.v., VAS 0.02 i.u./kg, 240 min
[30] = 10 mg/kg i.v., VAS 0.02 i.u./kg, 300 min
[31] = 20 mg/kg i.v., VAS 0.01 i.u./kg, 60 min
[32] = 20 mg/kg i.v., VAS 0.01 i.u./kg, 90 min
[33] = 20 mg/kg i.v., VAS 0.01 i.u./kg, 120 min
[34] = 20 mg/kg i.v., VAS 0.01 i.u./kg, 180 min
[35] = 20 mg/kg i.v., VAS 0.01 i.u./kg, 240 min
[36] = 20 mg/kg i.v., VAS 0.01 i.u./kg, 300 min
[37] = 20 mg/kg i.v., VAS 0.02 i.u./kg, 60 min
[38] = 20 mg/kg i.v., VAS 0.02 i.u./kg, 90 min
[39] = 20 mg/kg i.v., VAS 0.02 i.u./kg, 120 min
[40] = 20 mg/kg i.v., VAS 0.02 i.u./kg, 180 min
[41] = 20 mg/kg i.v., VAS 0.02 i.u./kg, 240 min
[42] = 20 mg/kg i.v., VAS 0.02 i.u./kg, 300 min

T1 sequence (Q00788 whole entry): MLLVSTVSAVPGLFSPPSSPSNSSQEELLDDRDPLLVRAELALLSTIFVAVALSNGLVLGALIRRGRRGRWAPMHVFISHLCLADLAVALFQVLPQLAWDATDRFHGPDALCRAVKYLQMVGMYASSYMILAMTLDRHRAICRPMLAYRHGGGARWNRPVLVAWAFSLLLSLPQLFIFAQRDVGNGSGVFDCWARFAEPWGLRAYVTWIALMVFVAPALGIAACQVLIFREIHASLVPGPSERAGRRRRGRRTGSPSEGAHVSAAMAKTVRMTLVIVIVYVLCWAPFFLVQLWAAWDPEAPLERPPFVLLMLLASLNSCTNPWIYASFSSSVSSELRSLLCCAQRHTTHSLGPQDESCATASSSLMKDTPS
Sequence of vasopressin V1 receptor (rat liver plasma membranes) (P30560 whole entry): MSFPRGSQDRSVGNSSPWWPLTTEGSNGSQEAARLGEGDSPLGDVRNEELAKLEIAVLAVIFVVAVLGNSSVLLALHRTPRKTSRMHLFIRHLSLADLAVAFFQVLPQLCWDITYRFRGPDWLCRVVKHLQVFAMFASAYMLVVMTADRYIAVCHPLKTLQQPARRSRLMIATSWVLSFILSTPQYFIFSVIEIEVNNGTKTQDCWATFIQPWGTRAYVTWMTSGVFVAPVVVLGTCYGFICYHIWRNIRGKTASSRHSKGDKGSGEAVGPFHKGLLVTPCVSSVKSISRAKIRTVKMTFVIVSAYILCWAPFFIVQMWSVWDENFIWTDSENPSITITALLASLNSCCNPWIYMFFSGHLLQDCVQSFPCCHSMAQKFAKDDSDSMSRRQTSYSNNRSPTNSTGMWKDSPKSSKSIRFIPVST

O=C(Cc1ccccc1Cl)Nc1ccc(C(=O)N2Cc3ccccc3Cc3ccccc32)cc1 [Example 16, 2-Chloro-N-[4-[(6,11-dihydro-5H-dibenz[b,e]azepin-5-yl)carbonyl]phenyl]benzeneacetamide]
IC50 [1]: 65 nM
IC50 [2]: 53 nM
Average Change [3, 5]: 25
Inhibition [3, 5]: 15%
Average Change [3, 6]: 30.5
Inhibition [3, 6]: -3%
Average Change [3, 7]: 28.5
Inhibition [3, 7]: 3%
Average Change [3, 8]: 23.5
Inhibition [3, 8]: 20%
Average Change [3, 9]: 30.5
Inhibition [3, 9]: -3%
Average Change [3, 10]: 30
Inhibition [3, 10]: -2%
Average Change [3, 11]: 27.5
Inhibition [3, 11]: 17%
Average Change [3, 12]: 29
Inhibition [3, 12]: 12%
Average Change [3, 13]: 40.5
Inhibition [3, 13]: -23%
Average Change [3, 14]: 29.5
Inhibition [3, 14]: 11%
Average Change [3, 15]: 26
Inhibition [3, 15]: 21%
Average Change [3, 16]: 30
Inhibition [3, 16]: 9%
Osmolality ([4]; 30 mg/kg orally): 1257 mOsm/kg
Urine Volume ([4]; 30 mg/kg orally): 7.2 ml/4 hrs.

Cc1ccccc1C(=O)Nc1ccc(C(=O)N2Cc3ccccc3C(C)c3ccccc32)cc1 (stereo not shown) [Example 22]
IC50 [1]: 140 nM
IC50 [2]: 320 nM
Average Change [3, 17]: 8.5
Inhibition [3, 17]: 60%
Average Change [3, 18]: 11
Inhibition [3, 18]: 49%
Average Change [3, 19]: 14
Inhibition [3, 19]: 35%
Average Change [3, 20]: 17.5
Inhibition [3, 20]: 19%
Average Change [3, 21]: 20
Inhibition [3, 21]: 7%
Average Change [3, 22]: 28
Inhibition [3, 22]: -30%
Average Change [3, 23]: 30
Inhibition [3, 23]: -40%
Average Change [3, 24]: 18.5
Inhibition [3, 24]: 56%
Average Change [3, 25]: 25
Inhibition [3, 25]: 40%
Average Change [3, 26]: 13
Inhibition [3, 26]: 69%
Average Change [3, 27]: 30
Inhibition [3, 27]: 29%
Average Change [3, 28]: 36
Inhibition [3, 28]: 14%
Average Change [3, 29]: 48
Inhibition [3, 29]: -14%
Average Change [3, 30]: 52.5
Inhibition [3, 30]: -25%
Osmolality ([4]; 30 mg/kg orally): 738 mOsm/kg
Urine Volume ([4]; 30 mg/kg orally): 10.2 ml/4 hrs.

Cc1cccc(NC(=O)c2ccc(C(=O)N3Cc4ccccc4Cc4ccccc43)cc2)c1C [Example 124, 4-[(6.11-Dihydro-5H-dibenz[b,e]azepin-5-yl)-carbonyl]-N-(2,3-dimethylphenyl)benzamide]
IC50 [1]: 210 nM
IC50 [2]: 1200 nM
Average Change [3, 17]: 38.5
Average Change [3, 24]: 43.5
Inhibition [3, 24]: -23%
Average Change [3, 31]: 4
Inhibition [3, 31]: 88%
Average Change [3, 32]: 12.5
Inhibition [3, 32]: 62%
Average Change [3, 33]: 12.5
Inhibition [3, 33]: 62%
Average Change [3, 34]: 21
Inhibition [3, 34]: 35%
Average Change [3, 35]: 18
Inhibition [3, 35]: 45%
Average Change [3, 36]: 20
Inhibition [3, 36]: 38%
Average Change [3, 37]: 17.5
Inhibition [3, 37]: 51%
Average Change [3, 38]: 18
Inhibition [3, 38]: 49%
Average Change [3, 39]: 9.5
Inhibition [3, 39]: 45%
Average Change [3, 40]: 21.5
Inhibition [3, 40]: 39%
Average Change [3, 41]: 24.5
Inhibition [3, 41]: 31%
Average Change [3, 42]: 33.5
Inhibition [3, 42]: 6%
Osmolality ([4]; 10 mg/kg orally): 1172 mOsm/kg
Urine Volume ([4]; 10 mg/kg orally): 5.5 ml/4 hrs.
